In patent US8242152B2, “Use of 4-[(4-thiazolyl)phenoxy]alkoxy-benzamidine derivatives for the prophylaxis and treatment of osteoporosis” (Dong Wha Pharmaceutical Co., Ltd., priority 2001, dated 2012):

Tests used:
[1] = tested on: MC3T3-E1 cells; assay: Alkaline phosphatase (ALP) activity to measure osteoblast activity (Example 4); format: cell-based; details: 10^−8M; two weeks culture
Protocol: This experiment is designed to evaluate the differentiation and activity of osteoblast via ALP activity having a close relationship with osteoblastic bone formation (Y. Wada et al., Bone, 22,479-485, 1998).
MC3T3-E1 cells (3,000 cells/well) derived from osteoblast were placed on a 96 well plate and after 24-hour culture the media were changed with fresh medium containing various differentiation factors such as ascorbic acid (100 ug/ml) and β-glycerophosphatic acid (5 mM). The medium was also treated with test substances and the medium, containing differentiation factors and the specimen, was changed with a fresh medium every 3 days.
The culture was terminated after two weeks to measure ALP activity. With the removal of the supernatant, 0.5% Triton X-100 were added for the lysis of cells. 100 ul of p-nitrophenylphosphate (1.21 mM) was added to 50 ul of above mixture. The mixture was incubated at 37° C. for 30 mins and with the addition of 0.2N sodium hydroxide (50 ul), the reaction was terminated. The standard curve was indicated at the absorbance of 405 nm using p-nitrophenol as a standard material and then the absorbance of test substances, so reacted, was measured to observe the production amount of p-nitrophenol.
As shown in the following table 4, the units of ALP activity were determined as the amount of p-nitrophenol (nM) produced per time (per min or hour)/1 ug protein after measuring the amounts of protein contained in the reaction mixture of each test substance.

[2] = biological target: LTB4 receptor (Homo sapiens, UniProt Q15722); assay: LTB4 receptor binding assay on human neutrophils ([3H]-LTB4); design: endogenous in cells; host or cells: human neutrophils (PMN) purified from fresh blood; details: 100 nM; versus DW1350
Protocol: Neutrophils (PMN) were purified from freshly drawn human blood by standard techniques or dextran T-500 sedimentation and centrifugation on Ficoll/Paquc (pharmacia) followed by hypotonic lysis of crythrocyte. The purified PMN were resuspended to a final concentration of 3×10^7 cells/ml in HESS (Hank's balanced salt solution, Gibco).
The assay was performed following the method described elsewhere (Brown. A. R.; Grccnham, N. C.; Burroughes, J. H.: Bradely, D. C. C.; Friend. R. H.; Burn, P. L.; Kraft. A.: Holmes, A. B.; Chem. Phys, Lett. 1992, 200, 1246). LTB4 receptor binding assay was performed in 12×75 mm polypropylene tubes containing 0.5 nM of [^3H]-LTB4 (200 Ci/mmol), competitive compound, and cells suspended in HBSS (3×10^6 cells) (final volume: 200 ul). The tubes were incubated on ice for 45 minutes. Free and PMN bound [^3H]-LTB4 were separated by filtration through Whatman GF/C filters. The filters were then washed three times with 5 ml of ice cold Tris buffer (pH 7.4). […] The radioactivity was measured by liquid scintillation spectrometry. The specific binding was determined as the count difference total binding and binding in the presence of 1000-fold excess of unlabeled LTB4 (Scontrol). The LTB4 binding activity was calculated from the percent inhibition of specific [^3H]-LTB4 binding at various concentrations (Ssample). […]

[3] = tested on: LTB4-induced osteoclast formation; assay: LTB4-induced osteoclast formation in rabbit osteoclast cultures, co-treatment and pre-treatment (Example 6); format: cell-based; details: dentin slices
Protocol: Rabbit osteoclasts were isolated as described by Victoria Tai's report (Doctoral Dissertation, 1997, Graduate Department of Pharmacology, University of Toronto) and Rraser P. Coxon et al. (Methods in Molecular Medicine, vol 80). Neonatal rabbits (New Zealand White) were sacrificed by ether-inhaling method under a hood. The removed long bones were dissected free of attached soft tissues and placed into ice-cold PBS. The long bones were cut longitudinally and mechanically curetted in 10 ml medium 199 with antibiotics (10 ug/ml penicillin G and 50 ug/ml gentamycin) in a glass Petri dish. Each bone was curetted with a scalpel blade and was finely minced. The fragments were then vigorously agitated by pipetting up and down using a pasteur pipette and vortex-mixed for 30 seconds. The fragments were allowed to settle and the cell suspension was then transferred to a 50 ml tube and the previous step repeated three times to a total volume of 40 ml. The bone fragments were allowed to settle (>1 min). The cell suspension was then transferred to a new 50 ml tube, passed through a 40 um cell strainer and centrifuged at 200 g for 8 minutes. The supernatant was removed and the pellet was immediately resuspended in α-MEM with 2% FBS (bicarbonate buffered medium).
40 uL droplets of osteoclast-containing suspensions were plated onto 60 mm tissue culture plastic dishes or on dentine slices in 96-well microtiter plates in 2% medium. The cells were allowed ninety minutes for attachment before the addition of 2 mL α-MEM with 2% FBS. After 24 hr culture, cells were washed to remove non-adherent cells and replaced with fresh medium as describes below.
After 24 hr in culture, the medium was removed and replaced with fresh medium containing both LTB4 receptor antagonist (1000 nM) and LTB4 (100 nM) or both DW1350 (1000 nM) and LTB4 (100 nM). The cultures were continued for an additional 48 hrs.
After 6 hrs in culture, the medium was removed and cells were pretreated with LTB4 receptor antagonists such as LY292728 (Journal of Medical Chemistry, 1995, vol. 38, No. 10, p 4411-4432), SB209247 (Journal of Medical Chemistry, 1996, vol. 39, No. 19, p 3837-3841), LY293111(Journal of Medical Chemistry, 1995, vol. 38, No. 10, p 4411-4432) and LY223982 (Journal of Medical Chemistry, 1993, vol. 36, p 3333-3340) or DW1350-containing medium and culture continued for 18 hrs. The medium was replaced with medium containing both LTB4 receptor antagonist and LTB4 or DW1350 and LTB4. The cultures were continued for an additional 48 hrs.
All cells were cultured at 37° C. in a humidified atmosphere of 95% air and 5% CO2 in bicarbonate buffered medium at pH 7.4.
Differentiated osteoclasts are multinucleated cells and have specific enzyme activity, such as ‘tartrate-resistant acid phosphatase (TRAP)’. Therefore, Osteoclast formation was determined by counting the number of TRAP-positive multinucleated cells (TRAP(+) MNCs).
After culture, the cells were fixed with 10% neutral buffered formalin for 30 min at 4° C., washed twice in distilled water and stained for TRAP activity by incubating with substrate. The number of TRAP(+)MNC with more than 2 nuclei was counted under photomicroscope.
Results were expressed as mean number of TRAP(+)MNC±SD of All experiments were done at least twice. Statistical analysis was performed for each experiment by student t-test.

Chain of LTB4 receptor (Q15722 whole entry): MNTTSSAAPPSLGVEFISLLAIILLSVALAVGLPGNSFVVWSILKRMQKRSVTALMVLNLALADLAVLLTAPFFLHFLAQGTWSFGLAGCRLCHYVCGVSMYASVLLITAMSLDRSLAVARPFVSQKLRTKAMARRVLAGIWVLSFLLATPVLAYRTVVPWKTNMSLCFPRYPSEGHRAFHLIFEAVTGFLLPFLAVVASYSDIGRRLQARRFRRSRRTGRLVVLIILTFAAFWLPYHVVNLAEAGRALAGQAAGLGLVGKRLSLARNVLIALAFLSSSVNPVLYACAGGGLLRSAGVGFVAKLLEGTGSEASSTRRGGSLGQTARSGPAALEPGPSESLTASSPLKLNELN

Row | Molecule | ALP activity (units) [1] | times the inhibition of LTB4 receptor binding of DW1350 [2] | further results
1 | 4-[5-[4-(aminoiminomethyl)phenoxy]pentoxy]-3-methoxy-N,N-bis(1-methylethyl)benzamide maleic acid [CGS-25019C] | 15.0 units | – | –
2 | Cc1nc(-c2ccc(OCCCCOc3ccc(C(=N)NO)cc3)cc2)c(C(C)C)s1 [DW1349, N— hydroxy-4-{4-[4-(5-isopropyl-2-methyl-1,3-thiazol-4-yl)phenoxy]butoxy}-benzamidine] | – | more than three times | –
3 | Cc1nc(-c2ccc(OCCCCCOc3ccc(C(=N)NO)cc3)cc2)c(C(C)C)s1 [DW1350, N-hydroxy-4-{5-[4-(5-isopropyl-2-methyl-1,3-thiazol-4-yl)phenoxy]pentoxy}-benzamidine] | 19.8 units | – | LTB4-stimulated osteoclast formation ([3]; pre-treatment 18 hrs, then 1000 nM compound + 100 nM LTB4 for 48 hrs): significant inhibition on LTB4-stimulated osteoclast formation; LTB4-stimulated osteoclast formation ([3]; simultaneous treatment: 1000 nM compound + 100 nM LTB4, 48 hrs): significant inhibition on LTB4-stimulated osteoclast formation
4 | Cc1nc(-c2ccc(OCCCCOc3ccc(C(=N)N)cc3)cc2)c(C(C)C)s1 [DW1351, 4-{4-[4-(5-isopropyl-2-methyl-1,3-thiazol-4-yl)phenoxy]butoxy}-benzamidine] | – | more than eight times | –
5 | Cc1nc(-c2ccc(OCCCCCOc3ccc(C(=N)N)cc3)cc2)c(C(C)C)s1 [DW1352, 4-{5-[4-(5-isopropyl-2-methyl-1,3-thiazol-4-yl)phenoxy]pentoxy}-benzamidine] | 17.1 units | – | –
6 | COc1cc(C(=O)N(C(C)C)C(C)C)ccc1OCCCCOc1ccc2c(N)noc2c1 [HS1141, N,N-diisopropyl-4-[4-(3-aminobenzo[d]isooxazole-6-yloxy)butoxy]-3-methoxybenzamide] | 15.2 units | – | –
